Measured values as given in US20100137344A1, “INDUCTION OF ANALGESIA IN NEUROPATHIC PAIN” (University Court of the University of Edinburgh, priority 2006, published 2010).

System: rats with chronic constriction injury (CCI) to sciatic nerve
Assay: Topical application to paws of CCI rats, behavioural reflex testing (thermal PWL, mechanical PWT)
Assay type: in vivo, rat
Settings: for % reversal of ipsilateral sensitisation, PWL / % reversal of ipsilateral sensitisation, PWT: 10-25 minutes after icilin
Procedure: Pain models were generated under halothane anaesthesia (Zeneca, Cheshire, UK). For the chronic constriction injury (CCI) model of neuropathic pain, four ligatures were tied loosely to constrict the sciatic nerve at mid-thigh level (as described previously^[39]). An inflammatory pain model was generated by injecting 100 μl of Complete Freund's Adjuvant (CFA, Sigma-Aldrich Ltd) into the ventral surface of the right hindpaw^[39]. A model of peripheral demyelination-induced pain was produced by focal application of lysolecithin to the sciatic nerve^[40]. Peak behavioural sensitisation was observed post-surgically between days 10-16 for CCI, 1-3 for CFA, and 7-14 for lysolecithin, when pharmacological and electrophysiological experiments and tissue removal were conducted.
Thermal sensitivity was assessed by measuring paw withdrawal latency (PWL, s) in response to a noxious thermal stimulus (Hargreaves' thermal stimulator, Linton Instrumentation, Diss, UK) directed to the hindpaw mid-plantar glabrous surface. Mechanical sensitivity was recorded as the paw withdrawal threshold (PWT, mN/mm^2) to calibrated von Frey filaments (Stoelting, Ill., US), as previously described^[39]. Sensitivity to noxious cold was assessed by placing animals in a waterbath with an aluminium floor containing 1 cm deep 4° C. water and counting the time the paw was held suspended over a 20 s period.
Icilin was applied at concentrations of 2.5-500 μM (in water with 0.2% DMF), by placing CCI or naïve rats unrestrained for 5 min in a 1 cm deep waterbath (sufficient to cover paws), which was thermostatically controlled to a temperature of 30° C., or by very lightly anaesthetising rats and immersing hindpaws in small tubes containing 5 ml icilin (500 μM-5 mM, with a vehicle of 45% dimethylformamide in 0.2% aqueous Tween 80) for 5 min, followed by sensory testing for 60-80 mins. The effects of (−)-menthol and its stereoisomers isomenthol (1S,2R,5R-menthol,) and (+)-menthol (1S,2R,5S(+)-menthol) (4-16 mM in 80% ethanol) were also assessed. Relevant vehicles were always assessed in similar experiments. As a contrast, the effect of cinnamaldehyde (1.5 mM in water) and the effect of cinnamaldehyde with additional icilin (80 μM in water with 0.2% DMF) were assessed in naïve animals. The effects of icilin (80 μM) were further assessed in CCI animals that had undergone antisense and mis-sense treatment for knockdown of TRPM8 or immediately following intrathecal injection of either LY 341495 or UBP 1112. […] The effects of brief paw immersion at different temperatures (10-22° C. for 5 min) on CCI rats were assessed by mechanical testing. The effects of intrathecal LY 341495 or UBP 1112 on the reversal of ipsilateral sensitisation in CCI following a 16° C. cool challenge for 5 min were measured. Reflex testing commenced 5 minutes following challenge, unless animals had been anaesthetised, in which case 15 minutes was allowed for recovery. Six replicate animals were tested in all pharmacological experiments.
Antisense and mis-sense oligonucleotides were 22-mers with phosphorothioate bonds at the last two positions at 5′ and 3′ ends (MWG Biotech, Ebersberg, Germany). Antisense extended from base −10 to base +12 relative to the start of the open reading frame for the rat TRPM8 gene: 5′ C*T*CGAAGGACATCTTGCCGT*G*G 3′, where * represents phosphorothioate linkages. Mis-sense was designed with 4 inversions of C/G or A/T as appropriate at residues 3, 11, 14 and 22, preserving overall G/C content. BLAST searches of both oligonucleotides indicated no significant complementarity to any known gene sequence. 14-day or 7-day osmotic minipumps (for CCI experiments or naïve electrophysiology experiments respectively—Alzet Minipump, models 2002, 2001; Charles River, UK) containing oligonucleotides (1 μg/μl in sterile saline) were connected to canulae inserted under the dura of the spinal cord to level L5/6 and produced a predicted infusion rate of 0.5 μl/h. […]

[1] = icilin 80 μM topical, antisense-treated CCI animals
[2] = icilin 80 μM topical, mis-sense-treated CCI animals
[3] = icilin 1000 μM applied to paw, CCI Con, 15 mins
[4] = icilin 1000 μM applied to paw, CCI Con, 50 mins
[5] = icilin 1000 μM applied to paw, CCI Ipsi, 15 mins
[6] = icilin 1000 μM applied to paw, CCI Ipsi, 50 mins
[7] = icilin 2500 μM applied to paw, CCI Con, 15 mins
[8] = icilin 2500 μM applied to paw, CCI Con, 50 mins
[9] = icilin 2500 μM applied to paw, CCI Ipsi, 15 mins
[10] = icilin 2500 μM applied to paw, CCI Ipsi, 50 mins
[11] = icilin 5000 μM applied to paw, CCI Con, 15 mins
[12] = icilin 5000 μM applied to paw, CCI Con, 50 mins
[13] = icilin 5000 μM applied to paw, CCI Ipsi, 15 mins
[14] = icilin 5000 μM applied to paw, CCI Ipsi, 50 mins
[15] = icilin topical, antisense osmotic pumps depleted, 18 days following surgery

SMILES: O=C1NC(c2cccc([N+](=O)[O-])c2)=CCN1c1ccccc1O [icilin, 1-(2′-hydroxyphenyl)-4-(3″-nitrophenyl)-1,2,3,6-tetrahydropyrimidin-2-one]
- reversal of CCI-induced behavioural reflex sensitisation to thermal and mechanical stimuli (icilin 80 μM topical, 5 min, bath at 30° C.): striking reversal
- % reversal of ipsilateral sensitisation, PWL [1]: 7.7±7.4%
- % reversal of ipsilateral sensitisation, PWT [1]: 9.4±8.2%
- % reversal of ipsilateral sensitisation, PWL [2]: 82.8±6.9%
- % reversal of ipsilateral sensitisation, PWT [2]: 58.7±8.2%
- analgesia on daily repeated application (Hargreaves' test) (icilin 200 μM topical over four successive days): consistently causes analgesia
- Mechanical PWT [3]: 4530.1 ± 300.5 mN/mm^2
- Thermal PWL [3]: 16.1 ± 0.5 s
- Mechanical PWT [4]: 4530.1 ± 300.5 mN/mm^2
- Thermal PWL [4]: 15.2 ± 0.4 s
- Mechanical PWT [5]: 702.8 ± 185.3 mN/mm^2
- Thermal PWL [5]: 16.4 ± 0.8 s
- Mechanical PWT [6]: 702.8 ± 185.3 mN/mm^2
- Thermal PWL [6]: 8.6 ± 0.2 s
- Mechanical PWT [7]: 4454.9 ± 245.9 mN/mm^2
- Thermal PWL [7]: 16.8 ± 0.9 s
- Mechanical PWT [8]: 4454.9 ± 245.9 mN/mm^2
- Thermal PWL [8]: 15.3 ± 0.7 s
- Mechanical PWT [9]: 651.9 ± 193.0 mN/mm^2
- Thermal PWL [9]: 16.4 ± 0.9 s
- Mechanical PWT [10]: 651.9 ± 193.0 mN/mm^2
- Thermal PWL [10]: 8.4 ± 0.6 s
- Mechanical PWT [11]: 2040.2 ± 115.2 mN/mm^2
- Thermal PWL [11]: 16.1 ± 0.9 s
- Mechanical PWT [12]: 4830.6 ± 0.0 mN/mm^2
- Thermal PWL [12]: 13.4 ± 0.7 s
- Mechanical PWT [13]: 412.2 ± 24.3 mN/mm^2
- Thermal PWL [13]: 16.7 ± 1.0 s
- Mechanical PWT [14]: 736.0 ± 26.3 mN/mm^2
- Thermal PWL [14]: 7.2 ± 0.6 s
- % reversal of sensitisation, PWL [15]: 83.7±10.1%
- % reversal of sensitisation, PWT [15]: 54.0±7.2%

SMILES: CC(C)[C@@H]1CC[C@@H](C)C[C@H]1O [(−)-menthol, 1R,2S,5R-(−)-menthol]
- reversal of sensitised responses (topical, (−)-menthol 4 mM, isomenthol and (+)-menthol 8 mM and 16 mM): Specific reversal of sensitised responses
